Assay [1] relates to mature rat hippocampus-derived primary cultured neurons. As to the kind of experiment: Inhibition effect of AAT peptides on ASPD apoptotic activity (neutralization). It counts as cell-based. Particulars: 4 μM synthetic ASPD, 24 hours; for inhibition effect on ASPD apoptotic activity compared with AAT01: 0.14 μM peptide, FIG. 19. As to the method: Based on the fact that anti-ASPD antibodies bind to ASPD to inhibit interaction between ASPD and NAKα3 that is a target molecule to suppress death of neurons, a peptide having similar effect was searched. For this purpose, ASPD immobilized to a microtiter plate was screened through use of (commercially available) phage display library in which a library of random 12 amino acids was expressed on a virus surface, and a converged sequence was analyzed. […] A peptide having neutralization activity was named as an Anti-AD toxicity (AAT) peptide.
The apoptotic activity was measured 24 hours later and compared with that of a control to which the AAT peptide has not been administered, whereby the inhibition activity was calculated.

The target in assay [2] is T1, 105 kDa band (Na+/K+-ATPase α3) (Rattus norvegicus, UniProt P06687).
T1 construct: endogenous in cells; host or cells: rat hippocampus-derived primary cultured neurons (mature)
The experiment in a line: Far-western blotting of cell extracts. It counts as binding. Particulars: extracts of neurons and HEK293 cells; detection with haASD1 (ASPD) or 6E10 (Aβ monomer). The method, then:
Extracts were prepared with RadioImmunoPrecipitation Assay (RIPA) respectively from the rat hippocampus-derived primary cultured neurons (number of culture days shown in FIG. 4) and the HEK293 cells, and protein amounts of the extracts were determined. Then, predetermined amounts of the extracts were subjected to electrophoresis with SDS-PAGE and transcribed to a nitrocellulose membrane, and reacted with native ASPD or an Aβ monomer for a predetermined period of time. The binding of the native ASPD was detected with anti-ASPD antibodies haASD1, and the binding of the Aβ monomer was detected with 6E10 that was commercially available anti-Aβ monomer antibodies (far-western blotting).
Thus, the synthetic ASPD is considered to be equivalent to the native ASPD, and after that, analysis was carried out using the synthetic ASPD.

The next assay has as its target ASPD (Homo sapiens, UniProt P05067). The experiment in a line: Surface plasmon resonance (SPR), biotinylated AAT peptide on chip, ASPD as ligand. It counts as binding. Conditions: peptide solid phase on chip. From the text: Biotin was bound to each C-terminal side of the above-mentioned AAT peptides 01 to […] and made into a solid phase on a chip, and a dissociation constant was obtained by surface plasmon resonance (SPR) using ASPD as a ligand.
For orientation: In SPR one partner is held on a chip, and binding of the other changes the refractive index at the surface.

ASPD, sequence (P05067 672-713 limits assumed): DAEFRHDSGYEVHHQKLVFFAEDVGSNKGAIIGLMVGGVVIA

On to “HFNWD (ASPD-interacting motif/peptide) [AAT04]”, for which the “inhibition effect on ASPD apoptotic activity compared with AAT01” value in assay [1] is given as “equal to or more than that of the AAT01”.

On to “HFNW (ASPD-interacting motif/peptide) [AAT06]”, for which the “inhibition effect on ASPD apoptotic activity compared with AAT04” value in assay [1] (2.8 μM peptide, FIG. 20) was “equal to or higher than that of the AAT04”.

Take “Aβ monomer: peptide cleaved from amyloid precursor protein (APP) with β- and γ-secretase”: the “binding to 105 kDa band in far-western blotting” value in assay [2] is “did not bind to the band”.

In the case of `CC(C)C[C@H](NC(=O)[C@H](CC(N)=O)NC(=O)[C@H](Cc1ccc(O)cc1)NC(=O)[C@H](Cc1c[nH]c2ccccc12)NC(=O)[C@H](CC(N)=O)NC(=O)[C@H](Cc1ccccc1)NC(=O)[C@@H](N)Cc1c[nH]cn1)C(=O)N[C@@H](Cc1c[nH]c2ccccc12)C(=O)N[C@@H](CCCNC(=N)N)C(=O)N[C@H](C(=O)N[C@@H](CCC(N)=O)C(=O)N[C@@H](Cc1ccc(O)cc1)C(=O)N[C@@H](CCCCNC(=O)CCCC[C@@H]1SC[C@@H]2NC(=O)N[C@@H]21)C(N)=O)C(C)C` [C-terminal biotinylated AAT01], at ASPD, the ka was 7.64 × 10^3 and the kd is recorded as 4.41 × 10^-4.

With `CC(C)C[C@H](NC(=O)[C@@H](N)Cc1c[nH]cn1)C(=O)N[C@@H](CC(N)=O)C(=O)N[C@@H](Cc1c[nH]c2ccccc12)C(=O)N[C@@H](Cc1c[nH]c2ccccc12)C(=O)N[C@@H](Cc1c[nH]cn1)C(=O)N[C@@H](CO)C(=O)N[C@@H](Cc1c[nH]c2ccccc12)C(=O)N[C@@H](Cc1ccc(O)cc1)C(=O)N1CCC[C@H]1C(=O)N[C@@H](C)C(=O)N[C@@H](CCCNC(=N)N)C(=O)N[C@@H](CCCCNC(=O)CCCC[C@@H]1SC[C@@H]2NC(=O)N[C@@H]21)C(N)=O` [C-terminal biotinylated AAT02], at ASPD, the ka is recorded as 5.60 × 10^3 and the kd is on record as 4.62 × 10^-4.

As for `CC(C)C[C@H](NC(=O)[C@H](Cc1c[nH]c2ccccc12)NC(=O)[C@H](CC(N)=O)NC(=O)[C@H](CC(C)C)NC(=O)[C@@H](N)Cc1c[nH]cn1)C(=O)N[C@@H](CO)C(=O)N[C@@H](Cc1c[nH]c2ccccc12)C(=O)N[C@@H](Cc1ccccc1)C(=O)N1CCC[C@H]1C(=O)N[C@@H](CO)C(=O)N[C@@H](CCCNC(=N)N)C(=O)N[C@@H](Cc1c[nH]cn1)C(=O)N[C@@H](CCCCNC(=O)CCCC[C@@H]1SC[C@@H]2NC(=O)N[C@@H]21)C(N)=O` [C-terminal biotinylated AAT03], at ASPD, the ka is 4.96 × 10^3 and the kd is on record as 4.39 × 10^-4.

Regarding “HFNWDW (ASPD-interacting motif/peptide) [AAT05]”, the “inhibition effect on ASPD apoptotic activity compared with AAT01” value in assay [1] is reported as “equal to or more than that of the AAT01”.
